Results on 5 molecules are retold here after publication PMC4744035, “In Vivo, In Vitro, and In Silico Characterization of Peptoids as Antimicrobial Agents” (PLoS ONE, 2016).

Where two headings read alike, the source gives them in different places. Ends that are not written are not given here.

Data set [1] relates to LPS (P. aeruginosa). Details: method as in PMID 8702613. As to conditions: divalent cation; read-out: I50 (affinity for LPS); cited from earlier work.
In data set [2] the test system is E. cloacae 218R Class C β-lactamase. The experiment in a line: microbe, parasite or virus in culture. The essentials:
(§1)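 Growth inhibition is determined by modified microdilution in Mueller Hinton broth, with peptoids prepared in 0.01% acetic acid containing 0.2% bovine serum albumin. Final inoculum is 2–7 x 10^5 CFU/mL; endpoint is absence of growth after overnight 37°C.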

The test system of data set [3] is E. coli 63103 (ESBL). Kind of data set: microbe, parasite or virus in culture. Summed up: as §1
Data set [4] deals with E. coli 64771 (ESBL). The experiment in a line: microbe, parasite or virus in culture. The essentials:
as §1

The subject of data set [5] is E. faecalis ATCC29212. Kind of data set: microbe, parasite or virus in culture. The essentials: as §1
For data set [6], the system named is E. faecalis F43559 (VRE). Kind of data set: microbe, parasite or virus in culture. Summed up: as §1
In data set [7] the test system is E. faecalis W61950 (VRE). Kind of data set: microbe, parasite or virus in culture. Summed up: as §1
In data set [8] the test system is E. faecium T62764 (VRE). Kind of data set: microbe, parasite or virus in culture. The essentials: as §1
Data set [9] concerns E. faecium mic80 (VRE). The experiment in a line: microbe, parasite or virus in culture. Summed up:
as §1

Data set [10] has as its system K. pneumonia 61962 (ESBL). Kind of data set: microbe, parasite or virus in culture. Summed up: as §1
Data set [11] concerns K. pneumonia 63575 (ESBL). The experiment in a line: microbe, parasite or virus in culture. The essentials:
as §1

In data set [12] the test system is P. aeruginosa 198 (MDR). The experiment in a line: microbe, parasite or virus in culture. The essentials:
as §1

The subject of data set [13] is P. aeruginosa 213 (MDR). Kind of data set: microbe, parasite or virus in culture. Summed up:
as §1

The test system of data set [14] is P. aeruginosa 9 (MDR). The experiment in a line: microbe, parasite or virus in culture. Summed up: as §1
For data set [15], the system named is P. aeruginosa H1027 (MDR). The experiment in a line: microbe, parasite or virus in culture. Summed up: as §1
Data set [16] deals with P. aeruginosa H103 (wild type). Kind of data set: microbe, parasite or virus in culture. Summed up:
as §1

For data set [17], the system named is P. aeruginosa LES400 (MDR). Kind of data set: microbe, parasite or virus in culture. The essentials: as §1
Data set [18] concerns P. maltophilia ATCC13637. Kind of data set: microbe, parasite or virus in culture. The essentials: as §1
The subject of data set [19] is S. aureus ATCC25923. The experiment in a line: microbe, parasite or virus in culture. The essentials: as §1
Data set [20] deals with S. aureus C623 (MRSA). The experiment in a line: microbe, parasite or virus in culture. The essentials: as §1
In data set [21] the test system is LPS (P. aeruginosa). The experiment in a line: Dansyl polymyxin B (DPX) displacement assay, LPS binding. The conditions noted are these: DPX bound to P. aeruginosa LPS; for IC50: read-out: I50 (concentration that displaces 50% of LPS-bound DPX). The procedure:
The Dansyl polymyxin B (DPX) displacement assay was carried out as described earlier. In brief, the fluorescence of DPX (Invitrogen) bound to LPS (P. aeruginosa) was measured by using a Luminescence spectrometer LS 50B (Perkin Elmer) with excitation and emission-wavelengths of 340 nm and 485 nm, respectively. A predetermined amount of DPX, resulting in 90% saturation of LPS, was added to 1 mL of 3 μg/mL of purified LPS. Small aliquots (5 μL of 1 μg/mL) of test compounds were added under constant stirring in the cuvette, and the displacement of DPX was measured for 30–60 seconds as a decrease in fluorescence. The process was repeated until maximum displacement was reached.
The ability of other cationic molecules to displace DPX molecules bound to LPS (monitored by reduction in fluorescence) assesses their relative ability to bind to LPS [33, 34]. While the highly cationic MSI-78 (+10 charge) displaced 100% of bound DPX (equivalent to that of polymyxin B), peptoid 1 and MX-226 displaced 71% and 73% of bound DPX, respectively. […] A second parameter characterizing the LPS/polycation interaction is the I50, which is defined as the concentration of a polycation that displaces 50% of LPS-bound DPX. The I50 is inversely related to the relative affinity of each molecule for binding sites on LPS.

For data set [22], the system named is 20 bacterial strains (13 Gram-negative, 7 Gram-positive). As for the experimental part: The MICs of test agents were measured using a modified broth micro-dilution method in Difco Mueller Hinton medium, on a panel of bacterial pathogens that were both susceptible and resistant to common antibiotics (S1 File). Briefly, serial dilutions were performed in 0.01% acetic acid containing 0.2% bovine serum albumin at 10-fold the desired final concentration. Ten μL of the 10-fold concentrated test reagents were added to each well of a 96-well polypropylene microtitre plate containing 90 μL of Mueller Hinton media per well. Bacteria were added to the plate from an overnight culture at a final concentration of 2–7 x 10^5 CFU/mL and incubated overnight at 37°C. The MIC is defined as the concentration at which no growth was observed.
Screening of peptoid antimicrobial activity against a panel of multidrug resistant superbugs was done according to the protocol described in the manuscript. The bacterial strains used in this panel included; P. aeruginosa PAO1 strain H103 [1], P. maltophilia ATCC#13637, S. aureus ATCC#25923 [1], E. faecalis ATCC#29212 [2], and E. cloacae 218R, constitutively expressing Class C chromosomal β-lactamase, were from the Hancock lab strains collection. An MRSA clinical isolate was kindly provided by Anthony Chow (Vancouver General Hospital, Vancouver, Canada). Two Klebsiella pneumoniae and two E. coli clinical isolates expressing extended spectrum β-lactamases (ESBL) were kindly provided by George Zhanel (Health Sciences Centre, Winnipeg, Canada). Vancomycin-resistant clinical isolates of Enterococcus faecalis and E. faecium were obtained from Ana M. Paccagnella (BC Centre for Disease Control, Vancouver, Canada). Three clinical isolates (#9, #198 and #213) of multi-drug resistant P. aeruginosa, were kindly provided by Carlos Kiffer (University of São Paulo, Brazil). […] Three P. aeruginosa clinical isolates of the Liverpool epidemic strain (LES) (H1027, H1030 and LES400) were all kindly provided by Craig Winstanley (University of Liverpool, UK). […] All tested bacterial strains were categorized as biohazard level 2 pathogens.

Data set [23] concerns diabetic foot ulcer infection. Details: method as in PMID 18310135. As to conditions: Phase III, diabetic foot ulcers; cited from earlier work.
Data set [24] concerns bowel perforation and sepsis. Details: method as in PMID 15294887. As to conditions: cited from earlier work.
The subject of data set [25] is B. subtilis ATCC 6633. Type of data set: cell-based. The essentials:
(§2)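 MICs determined by 2:1 serial broth microdilution in cation-adjusted Mueller-Hinton broth per CLSI M7-A6, using inoculum at 1 x 10^6 CFU/mL mixed 1:1 with peptoid solution. Three independent replicates, each with two parallel trials.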

Data set [26] concerns E. coli ATCC 35218. Type of data set: cell-based. Summed up:
as §2

Data set [27] relates to erythrocytes. Kind of data set: Hemolytic activity (HD10/HD50). Type of data set: cell-based. The source says: Table 1 Characteristics of antimicrobial peptoids, screened for activity against B. subtilis and E. coli bacterial strains. | column: HD10 / HD50
Data set [28] has as its system NIH 3T3 cells. The experiment in a line: Metabolic activity, MTS assay. Type of data set: cell-based, mouse. The conditions noted are these: NIH 3T3 cells, MTS assay, 3 hours. Summed up: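 Mouse NIH 3T3 fibroblast monolayers, about 5000 cells per well, washed and exposed to serially diluted peptoids in Hank's balanced salt solution. Metabolic activity read by MTS; average of six replicate trials.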

Data set [29] has as its system P. aeruginosa H1030 (MDR). Kind of data set: microbe, parasite or virus in culture. As to conditions: P. aeruginosa H1030 (MDR). Summed up:
as §1

The subject of data set [30] is MDR P. aeruginosa (polymyxin B resistant isolate). The arrangement: method as in PMID 19635950. As to conditions: MDR P. aeruginosa isolate most resistant to peptoid 1; cited from earlier work.

`[Mg+2]` [Mg^2+]: the IC50 in [1] is 620 µM.

As for “GIGKFLKKAKKFGKAFVKILKK-NH2 (C-terminus assumed) [MSI-78, pexiganan, reference compound]”, the MIC in [2] (218R Class C β-lactamase) worked out at 2 µg/mL; in [3] (63103 (ESBL)) it was 16 µg/mL; in data set [4] (64771 (ESBL)), 2 µg/mL; in data set [5] (ATCC29212), 16 µg/mL; in data set [6] (F43559 (VRE)), 16 µg/mL; in [7] (W61950 (VRE)), 256 µg/mL. In addition, the MIC in data set [8] (T62764 (VRE)) amounted to 8 µg/mL; in data set [9] (mic80 (VRE)), 4 µg/mL; in data set [10], 32 µg/mL; in data set [11], 8 µg/mL; in [12] (198 (MDR)), 4 µg/mL; in data set [13] (213 (MDR)), 8 µg/mL. Further, the MIC amounted to 16 µg/mL in data set [14] (9 (MDR)); 2 µg/mL in data set [15] (H1027 (MDR)); 1 µg/mL in [16] (H103 (wild type)); 4 µg/mL in [17] (LES400 (MDR)); 2 µg/mL in [18] (ATCC13637); 64 µg/mL in data set [19] (ATCC25923). For the same molecule, the MIC in data set [20] (C623) is 16 µg/mL. Moreover, the “bound DPX displaced (maximum displacement)” value (shortened to “bound DPX displaced”) in data set [21] is given as 100%. Further, in [21], the IC50 came to 1.4 µM. Besides, the “MICs, range against all Gram-positive strains tested” value in [22] fell in the range of 4 to 256 µg/mL. Also, the “median MIC against all Gram-positive strains tested” value in data set [22] turned out to be 16 µg/mL. Besides, the “patients in whom infection was eliminated or significantly reduced” value in data set [23] was “over 90%”. Moreover, the endotoxin plasma levels entry in data set [24] (rat model of sepsis) is “reduce endotoxin plasma levels”. Besides, the “reduction of bacterial counts” value in [24] (rat, caecal ligation and puncture model) is listed as “four orders of magnitude”.

As for H-(NLys-Npm-Npm)4-NH2 [Peptoid 1ach], the “MIC B. subtilis” value in data set [25] was 1.6 µM. Further, the “MIC E. coli” value in data set [26] amounted to 12.5 µM. Further, in [27], the “HD10 (hemolytic activity)” value is 183. Moreover, the “HD50 (hemolytic activity)” value in [27] is reported as more than 200. The “ID50 (inhibitory dose, metabolic activity)” value in data set [28] came out at 16 µM. Besides, the MIC in [2] (E. cloacae 218R Class C β-lactamase) worked out at 16 µg/mL; in data set [3] (E. coli 63103 (ESBL)) it was 16 µg/mL; in [4] (E. coli 64771 (ESBL)) it was 8 µg/mL; in [5] (E. faecalis ATCC29212), 8 µg/mL; in data set [6] (E. faecalis F43559 (VRE)), 32 µg/mL; in data set [7] (E. faecalis W61950 (VRE)) it was 32 µg/mL. The MIC in data set [8] (E. faecium T62764 (VRE)) was determined as 2 µg/mL; in [9] (E. faecium mic80 (VRE)), 4 µg/mL; in data set [10] (K. pneumonia 61962 (ESBL)), 128 µg/mL; in data set [11] (K. pneumonia 63575 (ESBL)), 64 µg/mL; in data set [12] (P. aeruginosa 198 (MDR)), 8 µg/mL; in [13] (P. aeruginosa 213 (MDR)), 8 µg/mL. In addition, the MIC in [14] (P. aeruginosa 9 (MDR)) came to 64 µg/mL; in data set [15] (P. aeruginosa H1027 (MDR)), 2 µg/mL; in data set [16] (P. aeruginosa H103 (wild type)), 4 µg/mL; in [29], 64 µg/mL; in [17] (P. aeruginosa LES400 (MDR)), 4 µg/mL; in data set [18] (P. maltophilia ATCC13637) it was 4 µg/mL. Further, the MIC in data set [19] (S. aureus ATCC25923) and in data set [20] (S. aureus C623 (MRSA)) was 4 µg/mL throughout.

As to “ILRWPWWPWRRK-NH2 (C-terminus assumed) [MX-226, Omiganan, reference compound]”, the MIC stood at 16 µg/mL in data set [2] (218R Class C β-lactamase); 64 µg/mL in [3] (63103 (ESBL)); 64 µg/mL in data set [4] (64771 (ESBL)); 64 µg/mL in data set [9] (mic80 (VRE)); 64 µg/mL in data set [13] (213 (MDR)); 64 µg/mL in data set [15] (H1027 (MDR)). The MIC in [16] (H103 (wild type)) came out at 32 µg/mL; in data set [18] (ATCC13637), 32 µg/mL; in data set [19] (ATCC25923), 16 µg/mL; in data set [20] (C623), 32 µg/mL. Moreover, the “bound DPX displaced” value in [21] turned out to be 73%. Further, the IC50 in [21] amounted to 5 µM. Moreover, the “number of pathogens with MIC ≤ 8 μg/mL” value in [22] (out of the 20 pathogens tested) is recorded as “none”.

Regarding polymyxin B, in [21], the “bound DPX displaced” value is reported as 100% and the IC50 stood at 3.2 µM. In [30], the MIC was 64 µg/mL.
